Measured values: the NIST ThermoML archive (doi:10.1021/je800527p)
Numbers after ± are expanded uncertainties.

Experiment: mn = molality of the nth substance listed, in mol/kg
Details: 101 kPa, Liquid

N[C@@H](CC(=O)NCC(=O)O)C(=O)NCC(=O)O [L-aspartoylbisglycine] + O
Details | mass density [kg/m3]
288.15 K, m1 = 0.02634 | 1001.74 ± 0.21
288.15 K, m1 = 0.03248 | 1002.34 ± 0.22
288.15 K, m1 = 0.03979 | 1003.07 ± 0.22
288.15 K, m1 = 0.04516 | 1003.6 ± 0.22
288.15 K, m1 = 0.05155 | 1004.23 ± 0.22
288.15 K, m1 = 0.05974 | 1005.03 ± 0.22
288.15 K, m1 = 0.06457 | 1005.5 ± 0.22
288.15 K, m1 = 0.06951 | 1005.98 ± 0.22
298.15 K, m1 = 0.02287 | 999.295 ± 0.21
298.15 K, m1 = 0.02484 | 999.489 ± 0.21
298.15 K, m1 = 0.02795 | 999.79 ± 0.21
298.15 K, m1 = 0.03159 | 1000.15 ± 0.2
298.15 K, m1 = 0.0337 | 1000.35 ± 0.22
298.15 K, m1 = 0.03757 | 1000.73 ± 0.21
298.15 K, m1 = 0.04282 | 1001.24 ± 0.21
298.15 K, m1 = 0.0486 | 1001.8 ± 0.21
298.15 K, m1 = 0.05367 | 1002.29 ± 0.21
298.15 K, m1 = 0.05892 | 1002.8 ± 0.2
303.15 K, m1 = 0.02228 | 997.821 ± 0.24
303.15 K, m1 = 0.02508 | 998.095 ± 0.21
303.15 K, m1 = 0.02783 | 998.36 ± 0.21
303.15 K, m1 = 0.0319 | 998.757 ± 0.21
303.15 K, m1 = 0.03772 | 999.316 ± 0.21
303.15 K, m1 = 0.0429 | 999.814 ± 0.21
303.15 K, m1 = 0.04971 | 1000.47 ± 0.21
303.15 K, m1 = 0.0554 | 1001.02 ± 0.21
303.15 K, m1 = 0.06187 | 1001.64 ± 0.21
313.15 K, m1 = 0.02228 | 994.368 ± 0.22
313.15 K, m1 = 0.02508 | 994.635 ± 0.22
313.15 K, m1 = 0.02783 | 994.898 ± 0.22
313.15 K, m1 = 0.0319 | 995.29 ± 0.22
313.15 K, m1 = 0.03772 | 995.842 ± 0.22
313.15 K, m1 = 0.0429 | 996.336 ± 0.22
313.15 K, m1 = 0.04971 | 996.987 ± 0.22
313.15 K, m1 = 0.0554 | 997.526 ± 0.21
313.15 K, m1 = 0.06187 | 998.14 ± 0.21

NCC(=O)N[C@@H](CS)C(=O)NCC(=O)O [glycyl-L-cysteinylglycine] + O
Details | mass density [kg/m3]
288.15 K, m1 = 0.01633 | 1000.63 ± 0.21
288.15 K, m1 = 0.02087 | 1001.05 ± 0.21
288.15 K, m1 = 0.02582 | 1001.51 ± 0.21
288.15 K, m1 = 0.02984 | 1001.88 ± 0.21
288.15 K, m1 = 0.03474 | 1002.34 ± 0.21
288.15 K, m1 = 0.0395 | 1002.78 ± 0.21
288.15 K, m1 = 0.04097 | 1002.91 ± 0.21
288.15 K, m1 = 0.04442 | 1003.23 ± 0.21
288.15 K, m1 = 0.04953 | 1003.71 ± 0.22
303.15 K, m1 = 0.02103 | 997.568 ± 0.28
303.15 K, m1 = 0.02497 | 997.92 ± 0.24
303.15 K, m1 = 0.02788 | 998.184 ± 0.19
303.15 K, m1 = 0.03046 | 998.417 ± 0.21
303.15 K, m1 = 0.03394 | 998.731 ± 0.2
303.15 K, m1 = 0.0374 | 999.043 ± 0.2
303.15 K, m1 = 0.04008 | 999.279 ± 0.23
303.15 K, m1 = 0.04358 | 999.593 ± 0.21
303.15 K, m1 = 0.05003 | 1000.17 ± 0.2
303.15 K, m1 = 0.05296 | 1000.43 ± 0.24
313.15 K, m1 = 0.02094 | 994.099 ± 0.22
313.15 K, m1 = 0.03109 | 995.001 ± 0.22
313.15 K, m1 = 0.03597 | 995.437 ± 0.22
313.15 K, m1 = 0.03941 | 995.739 ± 0.22
313.15 K, m1 = 0.04508 | 996.242 ± 0.21
313.15 K, m1 = 0.05002 | 996.672 ± 0.21
313.15 K, m1 = 0.05218 | 996.867 ± 0.21
313.15 K, m1 = 0.05751 | 997.331 ± 0.21

NCC(=O)N[C@@H](Cc1cnc[nH]1)C(=O)NCC(=O)O [glycyl-L-histidylglycine] + O
Details | mass density [kg/m3]
288.15 K, m1 = 0.004019 | 999.501 ± 0.21
288.15 K, m1 = 0.00501 | 999.6 ± 0.21
288.15 K, m1 = 0.006072 | 999.708 ± 0.21
288.15 K, m1 = 0.007051 | 999.802 ± 0.21
288.15 K, m1 = 0.008127 | 999.911 ± 0.21
288.15 K, m1 = 0.00901 | 1000 ± 0.21
288.15 K, m1 = 0.01012 | 1000.11 ± 0.21
288.15 K, m1 = 0.01088 | 1000.19 ± 0.21
288.15 K, m1 = 0.01205 | 1000.31 ± 0.21
298.15 K, m1 = 0.004009 | 997.442 ± 0.24
298.15 K, m1 = 0.007226 | 997.762 ± 0.21
298.15 K, m1 = 0.008041 | 997.838 ± 0.22
298.15 K, m1 = 0.00901 | 997.939 ± 0.3
298.15 K, m1 = 0.01009 | 998.038 ± 0.2
298.15 K, m1 = 0.01109 | 998.142 ± 0.22
298.15 K, m1 = 0.01227 | 998.254 ± 0.19
303.15 K, m1 = 0.00404 | 996.046 ± 0.22
303.15 K, m1 = 0.00498 | 996.138 ± 0.22
303.15 K, m1 = 0.006103 | 996.247 ± 0.22
303.15 K, m1 = 0.00711 | 996.346 ± 0.21
303.15 K, m1 = 0.007975 | 996.427 ± 0.23
303.15 K, m1 = 0.01106 | 996.73 ± 0.21
303.15 K, m1 = 0.01225 | 996.842 ± 0.2
313.15 K, m1 = 0.005108 | 992.711 ± 0.23
313.15 K, m1 = 0.006051 | 992.804 ± 0.23
313.15 K, m1 = 0.006936 | 992.89 ± 0.23
313.15 K, m1 = 0.0082 | 993.012 ± 0.23
313.15 K, m1 = 0.01022 | 993.207 ± 0.22
313.15 K, m1 = 0.01138 | 993.309 ± 0.22
313.15 K, m1 = 0.01232 | 993.4 ± 0.22

NCC(=O)N[C@@H](CO)C(=O)NCC(=O)O [glycyl-L-serylglycine] + O
Details | mass density [kg/m3]
288.15 K, m1 = 0.03014 | 1001.82 ± 0.21
288.15 K, m1 = 0.03542 | 1002.28 ± 0.21
288.15 K, m1 = 0.04107 | 1002.79 ± 0.21
288.15 K, m1 = 0.04543 | 1003.18 ± 0.21
288.15 K, m1 = 0.05019 | 1003.61 ± 0.21
288.15 K, m1 = 0.05524 | 1004.05 ± 0.21
288.15 K, m1 = 0.06026 | 1004.51 ± 0.22
288.15 K, m1 = 0.06526 | 1004.95 ± 0.22
298.15 K, m1 = 0.025 | 999.264 ± 0.21
298.15 K, m1 = 0.0306 | 999.768 ± 0.21
298.15 K, m1 = 0.03505 | 1000.16 ± 0.21
298.15 K, m1 = 0.04024 | 1000.61 ± 0.2
298.15 K, m1 = 0.04521 | 1001.05 ± 0.21
298.15 K, m1 = 0.05166 | 1001.62 ± 0.21
298.15 K, m1 = 0.05493 | 1001.9 ± 0.21
298.15 K, m1 = 0.0598 | 1002.34 ± 0.21
298.15 K, m1 = 0.06564 | 1002.84 ± 0.2
303.15 K, m1 = 0.02533 | 997.881 ± 0.21
303.15 K, m1 = 0.02992 | 998.289 ± 0.21
303.15 K, m1 = 0.03496 | 998.733 ± 0.21
303.15 K, m1 = 0.0453 | 999.64 ± 0.21
303.15 K, m1 = 0.05003 | 1000.05 ± 0.2
303.15 K, m1 = 0.0555 | 1000.53 ± 0.21
303.15 K, m1 = 0.06095 | 1001 ± 0.21
303.15 K, m1 = 0.06473 | 1001.34 ± 0.2
313.15 K, m1 = 0.02969 | 994.793 ± 0.22
313.15 K, m1 = 0.03329 | 995.098 ± 0.22
313.15 K, m1 = 0.03976 | 995.655 ± 0.21
313.15 K, m1 = 0.04401 | 996.025 ± 0.21
313.15 K, m1 = 0.04969 | 996.506 ± 0.21
313.15 K, m1 = 0.05419 | 996.891 ± 0.21
313.15 K, m1 = 0.05935 | 997.32 ± 0.21
313.15 K, m1 = 0.06498 | 997.808 ± 0.21

NCC(=O)N[C@@H](Cc1ccc(O)cc1)C(=O)NCC(=O)O [glycyl-L-tyrosylglycine] + O
Details | mass density [kg/m3]
288.15 K, m1 = 0.01708 | 1000.85 ± 0.21
288.15 K, m1 = 0.01938 | 1001.08 ± 0.21
288.15 K, m1 = 0.02117 | 1001.26 ± 0.21
288.15 K, m1 = 0.023 | 1001.45 ± 0.21
288.15 K, m1 = 0.02384 | 1001.53 ± 0.21
288.15 K, m1 = 0.02504 | 1001.65 ± 0.21
288.15 K, m1 = 0.02575 | 1001.72 ± 0.21
288.15 K, m1 = 0.02705 | 1001.85 ± 0.22
288.15 K, m1 = 0.0279 | 1001.95 ± 0.21
288.15 K, m1 = 0.02909 | 1002.06 ± 0.21
303.15 K, m1 = 0.01685 | 997.325 ± 0.49
303.15 K, m1 = 0.01781 | 997.42 ± 0.28
303.15 K, m1 = 0.019 | 997.535 ± 0.23
303.15 K, m1 = 0.02087 | 997.719 ± 0.21
303.15 K, m1 = 0.02301 | 997.932 ± 0.2
303.15 K, m1 = 0.02396 | 998.023 ± 0.26
303.15 K, m1 = 0.02501 | 998.127 ± 0.22
303.15 K, m1 = 0.02604 | 998.224 ± 0.26
303.15 K, m1 = 0.02701 | 998.323 ± 0.23
303.15 K, m1 = 0.02792 | 998.415 ± 0.26
303.15 K, m1 = 0.02882 | 998.496 ± 0.47
313.15 K, m1 = 0.017 | 993.889 ± 0.22
313.15 K, m1 = 0.01785 | 993.972 ± 0.22
313.15 K, m1 = 0.01889 | 994.065 ± 0.22
313.15 K, m1 = 0.02086 | 994.259 ± 0.22
313.15 K, m1 = 0.0216 | 994.332 ± 0.22
313.15 K, m1 = 0.02288 | 994.456 ± 0.22
313.15 K, m1 = 0.02376 | 994.546 ± 0.22
313.15 K, m1 = 0.02492 | 994.655 ± 0.22
313.15 K, m1 = 0.02586 | 994.742 ± 0.22
313.15 K, m1 = 0.02688 | 994.842 ± 0.22
313.15 K, m1 = 0.02763 | 994.913 ± 0.22
313.15 K, m1 = 0.02902 | 995.047 ± 0.22
